Assay results published in patent US12441706B2, “Protein degradation agent compound preparation method and application” (SHANGHAI JEMINCARE PHARMACEUTICALS CO., LTD., priority 2019, dated 2025).

Tests used:
[1] = test system: human prostate cancer VCaP cell subcutaneous xenograft tumor; experiment: In vivo pharmacodynamic study, human prostate cancer VCaP cell subcutaneous xenograft tumor CB17 SCID mouse model; settings: for tumor growth inhibition rate (TGI): castrated CB17 SCID mice, 24th day after administration
Description: Experimental animal: male mice of CB17 SCID strain, aged 6-8 weeks, weighing 18-22 grams, supplier: Beijing Weitong Lihua Laboratory Animal Technology Co., Ltd. Shanghai Branch, animal certificate number: 20170011005577. Animals were reared in the experimental environment for 7 days after arrival and the experiment was started.
Experimental method: Human prostate cancer cell VCaP cells (ATCC-CRL-2876) were cultured in vitro in monolayer, and the culture conditions were DMEM medium with 20% fetal bovine serum, 100 U/mL penicillin and 100 μg/mL streptomycin, cultured in a 5% CO2 incubator at 37° C. Conventional digestion with trypsin-EDTA was performed twice a week for passage. When the cell saturation was 80%-90% and the number reached the requirement, the cells were collected, counted, and inoculated. 0.2 mL (10× 10^6 cells+Matrigel) VCaP cells were subcutaneously inoculated into the left upper limb of each mouse, and castration was performed 33 days after cell inoculation. When the average tumor volume reached 119 mm^3, the drugs were administered in groups, and the doses of compound 14 were set to four groups: 1 mg/kg, 3 mg/kg, 10 mg/kg and 30 mg/kg.
Daily observation of experimental animals: the health status and death of animals were monitored every day. Routine examinations included observing the effects of tumor growth and drug treatment on the daily behavior of animals, such as behavioral activities, food and water intake (visual observation only), and weight changes (body weight measured three times a week), physical signs or other abnormal conditions.
Tumor measurements and experimental indicators: Experimental indicators were to examine whether tumor growth was inhibited, delayed or cured. Tumor diameters were measured with vernier calipers three times a week.
The calculation formula of tumor volume is: V=0.5a×b2, where a and b represented the long diameter and short diameter of the tumor, respectively. The antitumor effect of the compound was evaluated by TGI (%) or relative tumor proliferation rate T/C (%). TGI (%), reflecting the tumor growth inhibition rate. Calculation of TGI (%): TGI (%)=[1−(average tumor volume at the end of administration of a certain treatment group−average tumor volume at the beginning of administration of the treatment group)/(average tumor volume at the end of treatment in the vehicle control group−average tumor volume at the beginning of treatment in the vehicle control group)]×100%. Relative tumor proliferation rate T/C (%): the calculation formula is as follows: T/C %=TRTV/CRTV×100% (TRTV: RTV in the treatment group; CRTV: RTV in the negative control group). The relative tumor volume (RTV) was calculated according to the results of tumor measurement, and the formula is RTV=Vt/V0, where V0 is the average tumor volume measured at the time of group administration (i.e. d0), and Vt is the average tumor volume at a certain measurement, and TRTV and CRTV were taken on the same day. After the experiment, the tumor weight would be detected, and the percentage of T/Cweight would be calculated. Tweight and Cweight represent the tumor weight of the administration group and the vehicle control group, respectively.
Statistical analysis: Statistical analysis included the mean and standard error (SEM) of tumor volume at each time point for each group. […] T-test was used for comparison between two groups, and one-way ANOVA was used for comparison between three or more groups. […]

[2] = In vivo pharmacokinetics in mice, intravenous injection and oral administration; set-up: species or system mouse; settings: male CD1 mice
Description: In this experimental example, in vivo pharmacokinetics in mice were evaluated by intravenous injection and oral administration.
Experimental methods and conditions: Male CD1 mice, aged 6-8 weeks, all animals were free access to food and water, and were given a single dose of the compound to be tested at 1 mg/Kg by intravenous injection (solvent 5% DMSO/15% Solutol/80% Saline), at 5 min, 15 min, 30 min, 1 hr, 2 hr, 4 hr, 8 hr, 24 hr, 48 h after drug administration, or oral gavage administration of 10 mg/kg (solvent 5% DMSO/10% Solutol/85% Saline), at 15 min, 30 min, 1 hr, 2 hr, 4 hr, 6 h, 8 hr, 24 hr, 48 h after administration, blood was collected from the orbit, no less than 50 μL for each sample, heparin sodium was used for anticoagulation, and then placed on ice after collection, and centrifuged within 1 hour to separate the plasma for testing. The plasma concentration of the drug was detected by liquid tandem mass spectrometry (LC/MS/MS), and the pharmacokinetic parameters were calculated by Phoenix WinNonlin software.

VCap cells = experiment: Inhibition of proliferation of VCap cells (Cell Titer Glo, 6 days); type: cell-based; settings: Homo sapiens, VCaP, 144 h
Description: Tumor cell line VCap FGC (ATCC catalog number CRL-2876) was cultured in DMEM (Gibco catalog number 11965-092) medium containing 10% FBS (Gibco catalog number 10099-141C), respectively. During the determination, Vcap cells were replaced with DMEM medium containing 5% FBS and 0.1 nM R1881 (Sigma catalog number R0908).
Vcap FGC cells were inoculated in a 384-well plate (Perkin Elmer catalog number 6007460) at a cell density of 1200 cells/well in a volume of 20 μL/well and incubated overnight in a carbon dioxide incubator (Thermo). The prepared compound solutions of different concentrations were added in a volume of 5 μL/well. The corresponding vehicle control was set at the same time. After being cultured in the incubator for 6 days, the cell plate and the contents were equilibrated to room temperature, and 25 μL of Cell Titer Glor (Promega catalog number G7573) was added to each well, shake and mix well, incubated in dark for 10-30 minutes, and the signal values were detected though Envision microplate reader (PerkinElmer).
The percentage inhibition rate of compound-treated wells was calculated from vehicle control wells on the plate, and the percentage inhibition rate data corresponding to different concentrations were fitted by GraphPad prism, and the IC50 values were calculated by 4-parameter nonlinear logic formula.

[3] = mouse, intravenous administration 1 mg/kg, plasma
[4] = mouse, oral administration 10 mg/kg, plasma

With `CC1(C)C(=O)N(c2ccc(C#N)c(Cl)c2)c2ccc(-c3ccc(N4CC(CN5CCN(c6ccc7c(c6)C(=O)N(C6CCC(=O)NC6=O)C7=O)CC5)C4)nc3F)cc21` (stereo not drawn) [Compound 14] the “tolerance (body weight, FIG. 2)” value ([1]; 10 mpk and 30 mpk, CB17 SCID mice) was “better tolerance than Reference substance 1”, the “tumor growth inhibition rate (TGI)” value ([1]; dose 10 mpk) was 96% and the “tumor growth inhibition rate (TGI)” value ([1]; dose 30 mpk) was 96%. For the same molecule, the F ([2]; oral administration 10 mg/kg vs intravenous 1 mg/kg) was 68.6%, the AUC(0-inf) [2, 3] was 10400 ng·h/mL and the clearance [2, 3] was 1.61 mL/min/kg. For the same molecule, the half-life [2, 3] was 20.4 h, the AUC(0-inf) [2, 4] was 71100 ng·h/mL and the Cmax [2, 4] was 2650 ng/mL. For the same molecule, the half-life [2, 4] was 17.8 h, the Emax (VCap cells) was 94% and the IC50 (VCap cells) was 67 nM.
